1 molecule from ChEMBL document CHEMBL5120857, “Rational design, synthesis and biological evaluation of dual PARP-1/2 and TNKS1/2 inhibitors for cancer therapy” (Eur J Med Chem, 2022) can be followed below.

The target of data set [1] is Poly [ADP-ribose] polymerase 1 (Homo sapiens, UniProt P09874). Particulars: dose 10.0 nM, time 45.0 min.
For data set [2], the target named is Poly [ADP-ribose] polymerase 2 (Homo sapiens, UniProt Q9UGN5). As to the kind of experiment: Inhibition of PAPR-2 (unknown origin).
Data set [3] relates to HCT-116. As to the kind of experiment: Induction of cell cycle arrest in human HCT-116 cells assessed as G2/M phase cells at 5 uM incubated for 3 days by propidium iodide staining based flow cytometry (reference value: 68.35 %). Format: functional. Particulars: time 3 day.
Data set [4] deals with MDA-MB-231. The data set can be described thus: Antiproliferative activity against human MDA-MB-231 cells assessed as inhibition of cell growth incubated for 7 days by MTT assay. Format: functional, cell-based. To be noted: MDA-MB-231, 168 h.
Data set [5] deals with HCT-116. The data set can be described thus: Induction of apoptosis in human HCT-116 cells assessed as viable cells at 5 uM incubated for 3 days by annexinV-FITC/propidium iodide staining based flow cytometry (reference value: 60.0 %). Particulars: Homo sapiens, HCT-116, 72 h, time 3 day, read-out: Activity. Type of data set: functional.
Data set [6] has as its system MDA-MB-468. As to the kind of experiment: Antiproliferative activity against human MDA-MB-468 cells assessed as inhibition of cell growth incubated for 7 days by MTT assay. Particulars: MDA-MB-468, 168 h. Type of data set: functional, cell-based.
For data set [7], the system named is HCT-116. As to the kind of experiment: Induction of apoptosis in human HCT-116 cells assessed as early apoptotic cells at 5 uM incubated for 3 days by annexinV-FITC/propidium iodide staining based flow cytometry (reference value: 7.67 %). Type of data set: functional. To be noted: time 3 day.
The nature of data set [8]: Cytotoxicity against mouse AML12 cells assessed as reduction in cell viability incubated for 7 days by MTT assay. Type of data set: toxicity, cell-based. To be noted: time 7 day.
Data set [9] concerns HCT-116. The data set can be described thus: Inhibition of Wnt/beta-Catenin signaling in human HCT-116 cells assessed as decrease in cyclin D1 levels at 10 uM by Western blot analysis. Format: cell-based.
Data set [10] in a line: Toxicity in […] assessed as effect on body weight at 500 mg/kg, ip administered as single dose and measured on day 4 (reference value: 24.50 +/- 3.11 g). Format: organism-based. Particulars: in vivo.
In data set [11] the target is T1, Poly [ADP-ribose] polymerase tankyrase-2 (Homo sapiens) (UniProt Q9H2K2).
T1 sequence (whole entry): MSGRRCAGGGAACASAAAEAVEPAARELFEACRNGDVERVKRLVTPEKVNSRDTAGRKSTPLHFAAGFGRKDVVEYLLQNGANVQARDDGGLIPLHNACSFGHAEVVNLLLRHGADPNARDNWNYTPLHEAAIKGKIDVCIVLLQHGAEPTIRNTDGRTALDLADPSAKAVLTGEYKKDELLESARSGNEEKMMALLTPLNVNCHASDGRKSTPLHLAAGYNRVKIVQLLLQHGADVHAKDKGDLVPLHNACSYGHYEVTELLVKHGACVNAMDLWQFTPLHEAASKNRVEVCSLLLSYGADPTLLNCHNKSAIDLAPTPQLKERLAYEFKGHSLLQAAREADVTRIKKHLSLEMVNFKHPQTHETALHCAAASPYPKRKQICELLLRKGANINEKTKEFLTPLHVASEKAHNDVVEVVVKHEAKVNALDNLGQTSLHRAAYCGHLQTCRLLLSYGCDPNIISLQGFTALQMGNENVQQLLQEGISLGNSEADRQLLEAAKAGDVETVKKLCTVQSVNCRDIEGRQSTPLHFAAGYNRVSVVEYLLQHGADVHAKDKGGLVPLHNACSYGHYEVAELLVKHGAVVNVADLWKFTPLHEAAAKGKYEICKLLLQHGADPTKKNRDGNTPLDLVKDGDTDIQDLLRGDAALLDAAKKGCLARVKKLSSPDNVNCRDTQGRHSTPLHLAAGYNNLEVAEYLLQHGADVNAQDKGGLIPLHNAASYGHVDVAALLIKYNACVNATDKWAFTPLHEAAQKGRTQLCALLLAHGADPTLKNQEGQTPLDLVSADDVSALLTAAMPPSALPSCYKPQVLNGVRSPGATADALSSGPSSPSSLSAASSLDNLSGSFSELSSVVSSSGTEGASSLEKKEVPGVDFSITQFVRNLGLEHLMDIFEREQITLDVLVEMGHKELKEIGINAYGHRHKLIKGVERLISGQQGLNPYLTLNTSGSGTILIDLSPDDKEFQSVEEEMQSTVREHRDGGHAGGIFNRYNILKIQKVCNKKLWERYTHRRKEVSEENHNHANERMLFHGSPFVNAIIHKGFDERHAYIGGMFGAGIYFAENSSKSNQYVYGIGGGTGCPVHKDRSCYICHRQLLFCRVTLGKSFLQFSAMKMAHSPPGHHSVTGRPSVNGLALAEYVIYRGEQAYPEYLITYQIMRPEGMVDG
To be noted: dose 10.0 nM, time 1.0 hrs.

Active and inactive are the calls of the source. The rule behind the calls is not given here.

Chain of Poly [ADP-ribose] polymerase 1 (P09874 whole entry): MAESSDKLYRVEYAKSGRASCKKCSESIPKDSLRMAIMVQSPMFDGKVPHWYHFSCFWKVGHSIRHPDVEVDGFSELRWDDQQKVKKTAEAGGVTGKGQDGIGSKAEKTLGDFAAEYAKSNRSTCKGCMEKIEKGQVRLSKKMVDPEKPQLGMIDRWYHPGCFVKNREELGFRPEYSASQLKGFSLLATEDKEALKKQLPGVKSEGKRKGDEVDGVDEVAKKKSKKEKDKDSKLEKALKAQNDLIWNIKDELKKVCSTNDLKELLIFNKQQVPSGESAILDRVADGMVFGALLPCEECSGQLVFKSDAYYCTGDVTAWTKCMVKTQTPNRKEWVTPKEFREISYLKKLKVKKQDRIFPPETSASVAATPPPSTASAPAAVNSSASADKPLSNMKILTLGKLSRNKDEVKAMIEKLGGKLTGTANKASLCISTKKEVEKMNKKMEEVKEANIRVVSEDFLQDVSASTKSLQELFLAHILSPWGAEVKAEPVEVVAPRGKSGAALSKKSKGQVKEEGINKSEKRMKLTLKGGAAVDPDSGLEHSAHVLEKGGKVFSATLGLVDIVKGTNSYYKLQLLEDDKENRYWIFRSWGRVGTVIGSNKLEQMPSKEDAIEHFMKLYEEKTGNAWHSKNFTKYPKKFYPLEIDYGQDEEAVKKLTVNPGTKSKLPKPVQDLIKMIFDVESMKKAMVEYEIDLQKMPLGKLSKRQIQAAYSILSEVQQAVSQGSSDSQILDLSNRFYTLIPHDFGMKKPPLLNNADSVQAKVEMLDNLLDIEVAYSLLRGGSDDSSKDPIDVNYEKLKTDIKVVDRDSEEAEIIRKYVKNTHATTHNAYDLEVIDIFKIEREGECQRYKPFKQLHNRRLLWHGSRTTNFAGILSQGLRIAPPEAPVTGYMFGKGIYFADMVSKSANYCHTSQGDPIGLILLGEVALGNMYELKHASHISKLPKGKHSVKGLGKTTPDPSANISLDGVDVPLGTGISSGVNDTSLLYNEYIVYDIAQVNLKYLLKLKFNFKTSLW
Chain of Poly [ADP-ribose] polymerase 2 (Q9UGN5 whole entry): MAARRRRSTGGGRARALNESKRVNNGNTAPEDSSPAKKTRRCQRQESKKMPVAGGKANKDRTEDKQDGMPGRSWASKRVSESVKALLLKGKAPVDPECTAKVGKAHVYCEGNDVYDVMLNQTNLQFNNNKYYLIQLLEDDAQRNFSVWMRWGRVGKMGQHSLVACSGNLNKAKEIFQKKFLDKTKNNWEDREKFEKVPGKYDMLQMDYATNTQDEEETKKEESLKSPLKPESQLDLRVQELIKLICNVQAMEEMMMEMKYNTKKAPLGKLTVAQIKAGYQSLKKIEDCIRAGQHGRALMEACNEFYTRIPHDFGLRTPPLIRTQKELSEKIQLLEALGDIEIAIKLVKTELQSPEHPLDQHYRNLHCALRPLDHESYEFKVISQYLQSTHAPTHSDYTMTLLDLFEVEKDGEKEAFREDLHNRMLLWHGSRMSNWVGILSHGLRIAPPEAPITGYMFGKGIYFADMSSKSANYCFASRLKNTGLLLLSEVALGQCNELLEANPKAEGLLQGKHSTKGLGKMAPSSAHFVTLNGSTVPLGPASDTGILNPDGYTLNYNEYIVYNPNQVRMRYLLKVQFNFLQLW

In the case of `COc1ccc(NC(=O)c2ccc(NC(=O)N3CCN(C(=O)c4cc(Cc5n[nH]c(=O)c6ccccc56)ccc4F)CC3)cc2)cc1`, the results for the inhibition in [1] and in [11] were 97% and 68.5%, respectively. For the same molecule, the concentration for half-maximal inhibition (IC50) in data set [2] came out at 1.2 nM; in [4], 870 nM; in data set [6], 90 nM. Besides, the Activity in data set [3] was found to be 54.6%; in data set [7], 6.61%; in data set [10] it was 23 g. The viability at 5 µM in data set [5] came out at 45.1%. The CC50 at 168 h in [8] was 117000 nM. For the same molecule, in data set [9], the inhibition entry was “Active”.
